Results taken from patent US20220136068A1, “METHODS OF DETECTING AND TREATING VENETOCLAX-RESISTANT ACUTE MYELOID LEUKEMIA” (The Regents of the University of Colorado, A Body Corporate, priority 2019, published 2022).

Assays:
prim-AML ROS-low LSCs = test: In vitro viability of sorted ROS-low LSCs from primitive AML; type: cell-based, human; settings: in vitro treatment
Procedure: (§1) FIG. 2 is a series of charts showing viability of sorted ROSlow LSCs from mono-AML (n=5) and prim-AML (n=7) after 24 hours in vitro treatment with venetoclax alone or in combination with a fixed dose of 1.5 μM azacitidine. Each data point was expressed as mean±SD of technical triplicates. All viability data were normalized to untreated control.
(§2) To understand if the lack of response by monocytic AML to VEN+AZA is driven by intrinsic mechanisms, VEN+AZA sensitivity was directly evaluated in vitro, where protection from extrinsic factors such as the microenvironment is minimal. For these experiments, a second cohort of AML specimens with sufficient material to allow for more robust in vitro experimentation was used (herein referred to as Research Cohort 2). Using the surface expression profile of CD117, CD11b, CD68 and CD64, the primitive or monocytic compartment was isolated for analysis (herein referred to as prim-AML or mono-AML, respectively). Prim-AML has the phenotype of CD117+/CD11b−/CD68−/CD64− and mono-AML is predominantly CD117−/CD11b+/CD68+/CD64+. The in vitro drug sensitivity of these populations is shown in FIG. 2 and closely correlates with relative responses observed for the Clinical Cohort.
(§3) The relative sensitivity of LSCs derived from primitive versus monocytic AML specimens was analyzed. […]

mono-AML ROS-low LSCs = test: In vitro viability / cell death of sorted ROS-low LSCs from monocytic AML; type: cell-based, human; settings: 24 hours in vitro treatment; FIG. 2, FIG. 3
Procedure: as §1
FIG. 3 is a series of bar graphs viability of three mono-AMLs from the Research Cohort 2 after 24 hours in vitro treatment with various single or combinations drugs.
as §2, with “The in vitro drug sensitivity of these populations is shown in FIG. 2 and closely correlates with relative responses observed for the Clinical Cohort.” left out
as §3

Structure (SMILES)	sensitivity/resistance (viability) of prim-AML ROS-low LSCs (prim-AML ROS-low LSCs)	sensitivity/resistance (viability) of mono-AML ROS-low LSCs (mono-AML ROS-low LSCs)
Nc1ncn([C@@H]2O[C@H](CO)[C@@H](O)[C@H]2O)c(=O)n1 [AZA, azacitidine]	sensitive	–
COCCn1c2c([n+](Cc3cnccn3)c1C)C(=O)c1ccccc1C2=O [YM155]	highly resistant	sensitive
